Measurements: US20210239681A1, “COMPOSITIONS AND METHODS FOR […] OF […]-BASED IMMUNOTHERAPEUTICS” (ADVAXIS, INC., priority 2018, published 2021)

How the values were obtained:
Assay type in all cases: cell-based, human
[1] = test system: THP-1 cells; assay: Cytokine production by THP-1 in the absence of T cells; parameters: IL-6: unit not given here
Description: Analysis Kits and Reagents: Analysis of cytokine concentrations in culture medium used the U-plex assay kits from Meso Scale Discovery. Expression of T cell receptors specific for E7 peptide bound to HLA-A*02:01 was detected using HLA-A*02:01/peptide tetramers from MBL International (Woburn, Mass.).
Infection of THP-1: The THP-1 cell line was infected with either ADXS11-001 or XFL7 by incubating 10^6 cells with dilutions of bacteria in a 1 mL volume of RPMI 1640 10% FBS. […] After incubation with gentamicin the cells were washed again and resuspended to the desired cell concentration.
T cell cytokine expression analysis. An initial experiment using THP-1 as antigen presenting cells was performed using a T cell culture containing 6% E7 (11-20) specific T cells based upon staining with HLA-A*02:01/peptide tetramer. THP-1 cells were infected as described using two different concentrations of bacteria and then co-cultured with the T cells. Controls included uninfected THP-1 cells and THP-1 cells incubated with (exposed to) either the 9mer or 10mer peptide for one hour. After an overnight co-culture, medium was collected for analysis of cytokines.
To further explore the importance of the overnight incubation of infected THP-1, THP-1 cells infected overnight were compared to THP-1 cells infected for 2 hours. T cells specific for 9mer and 10mer peptides were co-cultured with each of the THP-1 cells and with uninfected or peptide exposed THP-1. As before, medium was collected after an overnight co-culture and cytokines were measured.
(§1) Titration studies with different multiplicity of infection (MOI). THP cells were infected for 2 hours with 3 different dilutions (MOI) of Listeria. Infected or uninfected THP cells were then cultured overnight for 24 hours before co-culturing the T cells. Cells were co-cultured overnight before cytokine analysis.

[2] = test system: HPV E7 Specific T cells; assay: THP-1/T cell co-culture: MOI, infection time and cell ratio titration; parameters: IFNγ / IL-1β / IL-6 / TNF-α: unit not given here; conditions: for IFNγ production / IFNγ / IL-1β / IL-6 / TNF-α: THP-1 + peptide; for IFNγ production: THP-1 Cells 40000
Description: A separate experiment was performed with a range of MOI and 5 hours infection time. In this experiment only IFNγ was measured since this cytokine is only made by the T cells, not THP-1 cells. While there was still recognition of the ADXS11-001 infected THP-1 cells it was not as great as that observed in overnight cultures when compared to the peptide incubated THP-1.
The MOI used for infection was varied over a range of bacterial concentration. In Table 12 the effect of the different MOI on cytokine secretion by THP-1 is shown. […] Secretion of IFNγ by the T cells was related to the MOI with higher MOI stimulating higher IFNγ production, though there was significant IFNγ at all MOI.
Cell number and ratio of T cells to THP-1 cells was also analyzed. The above experiments all used 20,000 T cells and 20,000 THP-1 cells per well (1:1 ratio). We initially investigated the effect of cell number using THP-1 incubated with peptide. The number of both T cells and THP-1 were varied. THP-1 cells ranging from 40,000 cells to 5000 cells per well were incubated with T cells ranging from 20,000 to 5000 cells per well. Effect of varying THP-1 to T cell ratio on IFNγ production was investigated at both higher (1 μg/ml) and lower (0.1 μg/ml) peptide concentrations.
We investigated if this effect is reproducible in infected THP cells. Varying concentration of infected THP-1 cells ranging from 40000 to 10000 cells per well were incubated with T cells ranging from 40000 to 10000 cells per well to identify the optimum cell ratio for the assay. The effect of cell ratio on IFNγ production is similar to the effect observed with peptide incubation.
as §1

[3] = test system: THP-1 cells; assay: Cytokine production by THP-1 in the absence of T cells; conditions: Without gentamicin; Listeria MOI of 10; optical density
[4] = Cytokine secretion by THP-1 after infection or + E7 peptide (No T cells), mean of triplicate
[5] = THP-1 + peptide, THP-1 cell alone
[6] = THP-1 + peptide, THP-1 cells only
[7] = THP-1 incubated with peptide, absence of T cells

Question: Which “IFNγ production, THP-1 alone” value ([1]; 50 μg/mL gentamicin, Listeria MOI of 10, optical density) does the source give for YMLDLQPETT [10mer] here?
Answer: 0.058

Question: What about the IFNγ [1, 4] of the same sequence?
Answer: 36.7 pg/mL

Question: And the IL-1β [1, 4]?
Answer: 0.2 pg/mL

Question: What about the IL-2 [1, 4] of the same sequence?
Answer: 4.6 pg/mL

Question: And the IL-4 [1, 4]?
Answer: 0.6 pg/mL

Question: What about the IL-5 [1, 4] of the same sequence?
Answer: <LLOD

Question: And the IL-8 [1, 4]?
Answer: 11.8 pg/mL

Question: What about the IL-10 [1, 4] of the same sequence?
Answer: 0.4 pg/mL

Question: And the IL-12p70 [1, 4]?
Answer: 0.3 pg/mL

Question: What about the IL-13 [1, 4] of the same sequence?
Answer: <LLOD

Question: And the TNF-α [1, 4]?
Answer: 15.5 pg/mL

Question: And the IFNγ [1, 5]?
Answer: 9

Question: And the IL-1β [1, 5]?
Answer: 0

Question: What about the IL-6 [1, 5] of the same sequence?
Answer: <LLOD

Question: And the TNF-α [1, 5]?
Answer: <LLOD

Question: What about the IFNγ [1, 6] of the same sequence?
Answer: 1

Question: And the IL-1β [1, 6]?
Answer: 0

Question: What about the IL-6 [1, 6] of the same sequence?
Answer: 6

Question: What about the TNF-α [1, 6] of the same sequence?
Answer: 104

Question: What about the IFNγ ([1]; THP-1 alone, peptide exposed) of the same sequence?
Answer: <LLOD

Question: What about the IL-1β ([1]; THP-1 alone, peptide exposed) of the same sequence?
Answer: <LLOD

Question: And the IL-2 ([1]; THP-1 alone, peptide exposed)?
Answer: <LLOD

Question: What about the IL-5 ([1]; THP-1 alone, peptide exposed) of the same sequence?
Answer: <LLOD

Question: And the IL-6 ([1]; THP-1 alone, peptide exposed)?
Answer: <LLOD

Question: And the IL-10 ([1]; THP-1 alone, peptide exposed)?
Answer: <LLOD

Question: What about the IL-12p70 ([1]; THP-1 alone, peptide exposed) of the same sequence?
Answer: <LLOD

Question: What about the IL-13 ([1]; THP-1 alone, peptide exposed) of the same sequence?
Answer: <LLOD

Question: What about the TNF-α ([1]; THP-1 alone, peptide exposed) of the same sequence?
Answer: 0

Question: What about the IFNγ [1, 7] of the same sequence?
Answer: <LLOD

Question: What about the IL-1β [1, 7] of the same sequence?
Answer: 0.1

Question: And the IL-2 [1, 7]?
Answer: <LLOD

Question: What about the IL-4 [1, 7] of the same sequence?
Answer: <LLOD

Question: And the IL-6 [1, 7]?
Answer: <LLOD

Question: And the IL-8 [1, 7]?
Answer: 8.1

Question: And the IL-10 [1, 7]?
Answer: <LLOD

Question: And the IL-12p70 [1, 7]?
Answer: <LLOD

Question: And the IL-13 [1, 7]?
Answer: <LLOD

Question: What about the TNF-α [1, 7] of the same sequence?
Answer: <LLOD

Question: What about the IFNγ production ([2]; T Cells 10000) of the same sequence?
Answer: 8078

Question: And the IFNγ production ([2]; T Cells 20000)?
Answer: 17968

Question: What about the IFNγ production ([2]; T Cells 40000) of the same sequence?
Answer: 34161

Question: And the IFNγ ([2]; THP/T cell co-culture)?
Answer: 33835

Question: What about the IL-1β ([2]; THP/T cell co-culture) of the same sequence?
Answer: 3

Question: What about the IL-6 ([2]; THP/T cell co-culture) of the same sequence?
Answer: 23

Question: And the TNF-α ([2]; THP/T cell co-culture)?
Answer: 697

Question: What about the IFNγ ([2]; co-culture with T cells) of the same sequence?
Answer: 65099

Question: And the IL-1β ([2]; co-culture with T cells)?
Answer: 6

Question: And the IL-6 ([2]; co-culture with T cells)?
Answer: 1243

Question: And the TNF-α ([2]; co-culture with T cells)?
Answer: 2309

Question: What about the “IFNγ Mean” value ([2]; THP-1 incubated with peptide, mean of triplicate) of the same sequence?
Answer: 41305 pg/mL

Question: What about the “IFNγ production, THP-1 alone” value [3] of the same sequence?
Answer: 0.062
